Measured values from patent US20200253888A1, “USE OF BIOMARKERS ASSOCIATED WITH LINE-1” (THE ARIZONA BOARD OF REGENTS ON BEHALF OF THE UNIVERSITY OF …, priority 2016, published 2020).

Legend:
AhR = AhR knockdown by siRNA in HepG2 cells (immunoblot); type: cell-based, human; settings: HepG2, siRNA transfection
Procedure: FIG. 3 is experimental results showing B[a]P induces the TG-β1 mRNA expression through of its receptor AhR in HepG2 cells. A) Cell were treated with 1.5 μM B[a]P or an equivalent DMSO concentration (0.5%) for different periods of times. B) Cells were transfected without siRNA (mock), with AhR target-specific siRNAs, or with a control siRNA (scramble), then treated with 1.5 μM B[a]P or DMSO for 48 h. Total RNA was isolated, and 1 μg of RNA was subjected to cDNA synthesis. Samples were analyzed via RT-PCR using human specific primers for TGF-μ1 and GAPDH. C) Some transfected cells were lysed and the whole cell lysates was analyzed by immunoblotting for AhR or GAPDH antibodies (loading control) to confirm target knockdown.
Immunoblotting: Total cell lysates were resolved by SDS-Tris PAGE and then electrotransferred onto polyvinylidine fluoride membranes (Thermo Fisher Scientific) in Tris-glycine buffer containing 20% methanol. Proteins were detected by immunoblotting. Where indicated, membranes were stripped of bound antibodies using 62.5 mmol/L Tris-HCl (pH 6.7), 100 mmol/L 2-mercaptoethanol, and 2% SDS for 30 minutes at 60° C. and then reprobed as described in figure legends.
(§1) RNA interference: Small interfering RNA (siRNA) duplexes sequences were chemically synthesized and annealed by Thermo Fisher Scientific. […]

L1 mRNA (ORF1 and ORF2) = assay: B[a]P-induced L1 mRNA expression after siRNA transfection in HepG2 cells (qRT-PCR); type: cell-based, human
Procedure: FIG. 5 is experimental results showing B[a]P-mediated L1 mRNA expression requires TGFR1, Smad2 and smad3 in HepG2 cells. Cells were transfected without siRNA (mock), with target-specific siRNAs for Smad2, Smad3, TGFBR1, or with a control siRNA (scramble), then treated with 1.5 μM B[a]P or DMSO for 48 h. Total RNA was isolated, and 1 μg of RNA was subjected to cDNA synthesis. Samples were analyzed via RT-PCR using human specific primers for L1 (ORF1 and ORF2) and GAPDH. C) Some transfected cells were lysed and the whole cell lysates was analyzed by immunoblotting for TGFBR1, Smad2/3 or GAPDH antibodies (loading control) to confirm target knockdown.
RT-PCR: Total RNA was isolated from cells using the RNeasy Plus Kit (Qiagen) and 2 μg RNA was digested with TurboDNase-I (Thermo Fisher Scientific). A total DNAse digested RNA (1 μg) was employed for cDNA synthesis using high-capacity cDNA reverse transcription Kit (Thermo Fisher Scientific). The resulting cDNAs (50 ng) were used as templates for qRT-PCR to analyze the mRNA expression using Power SYBR® Green PCR Master Mix and primers for L1-ORF-1, L1-ORF-2, TGF-β1 and GAPDH. The fold changes were determined by comparing the ACT value of each product normalized to GAPDH as an internal control.
as §1

L1 = settings: HeLa, HMEM, vSMC and mK4 cell lines; previously shown (ref. 33); cited from earlier work
[1] = tested on: phospho-Smad2, E-Cadherin, N-Cadherin, vimentin; assay: Activation of the TGF-β1 signaling pathway by B[a]P in HepG2 cells (immunoblotting); type: cell-based, human; settings: data not shown
Procedure: FIG. 4 is experimental results showing B[a]P induces the activation of the TGF-β1 signaling pathway in HepG2 cells. Cells were stimulated for different periods of times by replacing cell media for supplemented fresh media containing 1.5 μM B[a]P or an equivalent DMSO concentration (0.5%). Whole cell lysates were analyzed by immunoblotting for phospho-Smad2, total Smad2, E-Cadherin, N-Cadherin, and GAPDH (loading control).
(§2) Cell culture and treatments: HepG2 hepatocellular carcinoma cell line was purchased from the American Type Culture Collection (ATCC). Cells were grown in RPMI medium supplemented with 10% fetal bovine serum (FBS, Thermo Fisher Scientific, Grand Island, N.Y.) supplemented with 62.5 μg/mL penicillin and 100 μg/mL streptomycin (Thermo Fisher Scientific) in a humidified incubator at 37° C. with 5% CO2. HepG2 cells were pleated on day before treatment. Cells were between 40-50% confluent at the treatment time. […] All protein concentrations were determined using the bicinchoninic acid assay (Thermo Fisher Scientific).
Immunoblotting: Total cell lysates were resolved by SDS-Tris PAGE and then electrotransferred onto polyvinylidine fluoride membranes (Thermo Fisher Scientific) in Tris-glycine buffer containing 20% methanol. Proteins were detected by immunoblotting. […]

[2] = tested on: L1 mRNAs (ORF-1 and ORF-2); assay: TGF-β1-induced L1 mRNA expression in HepG2 cells (qRT-PCR); type: cell-based, human
Procedure: FIG. 1 is experimental results showing TGF-β1 induces the L1 mRNA expression in HepG2 cells. HepG2 were stimulated for different times by adding serum-free media with or without (untreated) 10 ng/ml TGF-β1. Total RNA was isolated, and 1 μg of RNA was subjected to cDNA synthesis. Samples were analyzed via RT-PCR using specific primers for human L1 (ORF-1 and ORF-2) and GAPDH. Expression relative to untreated cells.
as §2
RT-PCR: Total RNA was isolated from cells using the RNeasy Plus Kit (Qiagen) and 2 μg RNA was digested with TurboDNase-I (Thermo Fisher Scientific). […] The fold changes were determined by comparing the ACT value of each product normalized to GAPDH as an internal control. […]

[3] = tested on: L1 proteins (ORF1p and ORF2p); assay: TGF-β1-mediated L1 expression in BEAS-2B lung cells with or without juglone (immunoblotting); type: cell-based; settings: BEAS-2B cells, 10 ng/ml TGF-β1, immunoblotting
Procedure: In the experiments, non-malignant BEAS-2B lung cells were untreated or treated with 10 ng/ml TGF-β1 and co-treated with 1 μM juglone or ethanol and whole lyses were analyzed by immunoblotting for L1 proteins (ORF1p and ORF2p), vimentin, DNMT1 and GAPDH (loading control).

## AhR siRNA: siRNA duplex for AhR (ID#s1200), SEQ ID NO: 9 and 10 (chain 1 CGGAUGAAAUCCUGACGUATT; chain 2 UACGUCAGGAUUUCAUCAGTT; chemistry not given here)
AhR
  reduction in AhR levels compared with controls: > 90%

## Smad3 siRNA: siRNA duplex for Smad3 (ID#107877), SEQ ID NO: 15 and 16 (chain 1 GGCCCAGUGCAUAUGCAAUTT; chain 2 AUUGCAUAUGCACUGGGCCTC; chemistry not given here)
L1 mRNA (ORF1 and ORF2)
  baseline L1 mRNA expression after knockdown: slight reduction

## Smad2 siRNA: siRNA duplex for Smad2 (ID#115715), SEQ ID NO: 13 and 14 (chain 1 GCUUCUCUGAACAAACCAGTT; chain 2 CUGGUUUGUUCAGAGAAGCTG; chemistry not given here)
L1 mRNA (ORF1 and ORF2)
  baseline L1 mRNA expression after knockdown: slight reduction

## c1ccc2c(c1)cc1ccc3cccc4ccc2c1c34 [B[a]P, Benzo[a]pyrene]
L1
  transcriptional expression of L1: reactivates transcriptional expression of L1
[1]
  expression of vimentin: not induced

## TGF-β1: Recombinant human TGF-β1 purchased from R&D Systems
[2]; HepG2, 10 ng/ml TGF-β1, time course 4 h-24 h
  time of maximal peak induction of L1 mRNAs: 8 h
[2]; HepG2, 10 ng/ml TGF-β1 in serum-free media, after 8 h to 24 h treatment, relative to untreated cells
  expression levels of L-1 mRNAs (ORF-1 and ORF-2): induced an evident increase
[3]
  expression of L1: induces the expression of L1
